This note sets out measurements from paper PMC8000185 (International Journal of Molecular Sciences, 2021).

The structures appear in SMILES notation.

System in the first series: not listed separately
The series can be described thus: Cell viability (cytotoxicity) assay. It is filed as cell-based. Conditions: human, MDA-MB-231 cells, 48 h treatment. The procedure:
On the day of treatment, respective compounds were serially diluted using a semi-logarithmic dilution series from 20 mM stocks in neat DMSO into DMEM-high glucose media (10% v/v FBS) in a separate 96-well plate and under sterile conditions. Thereafter, 10 μL of the diluted compounds at their respective concentrations (n = 4) were added to the cells. […] Vehicle media blanks or drug blanks were also included to correct for inherent colour of the compounds and phenol red-containing media. Following 48 h treatment, 20 μL CellTitre 96® Aqueous One Solution Cell Proliferation Assay (Promega, Madison, USA) was added to each well, plates were incubated for 2 h, and absorbance was measured at 490 nm using a SpectraMax Plus 384-well plate reader (Molecular Devices LLC, San Jose, USA) and Softmax PRO v7.0 software. Blank-corrected data were analysed and graphed using GraphPad PRISM v8.0 software (GraphPad Software, San Diego, CA USA).
What is called IC50 is the concentration at which inhibition is half-maximal. As for `COc1ncc(-c2nc(C(=O)NC(=N)N)c(N)nc2N2CCCOCC2)cn1` [compound 43], the IC50 at 48 h was more than 100 µM.
On to `Cc1ccc2oc(-c3nc(C(=O)NC(=N)N)c(N)nc3N3CCCCCC3)cc2c1` [compound 7], for which the IC50 at 48 h was 8.8 µM.
The same measure, in the same setting: the figure for `N=C(N)NC(=O)c1nc(I)c(N)nc1N` [compound 3] is more than 100 µM; for `N=C(N)NC(=O)c1nc(-c2cc3cc(F)ccc3o2)c(N)nc1N` [compound 8] it is 10.6 µM.
On the same count and under the same terms, under `CCN(c1nc(N)c(C(=O)NC(=N)N)nc1-c1cc2ccccc2o1)C(C)C` [compound 33] stands 17.2 µM; under `N=C(N)NC(=O)c1nc(-c2cnc(N)nc2)c(N2CCCCCC2)nc1N` [compound 27], more than 100 µM.
Still for that read-out and setting: the figure for `N=C(N)NC(=O)c1nc(-c2cnc(NCCO)nc2)c(N2CCCCCC2)nc1N` [compound 28] is more than 100 µM; for `N=C(N)NC(=O)c1nc(-c2cc3cnccc3o2)c(N)nc1N` [compound 18] it is 26.4 µM.
Consider `N=C(N)NC(=O)c1nc(-c2cc3ncccc3o2)c(N2CCCC2)nc1N` [compound 38], for which the IC50 at 48 h was more than 100 µM.
`N=C(N)NC(=O)c1nc(-c2cncnc2)c(N2CCCOCC2)nc1N` [compound 42] displayed an IC50 at 48 h of more than 100 µM.
On the same count and under the same terms, under `N=C(N)NC(=O)c1nc(-c2cc3cnccc3o2)c(N2CCCCCC2)nc1N` [compound 19] stands 69.4 µM; under `N=C(N)NC(=O)c1nc(Cl)c(N2CCCCCC2)nc1N` [HMA, 5-(N,N-hexamethylene)amiloride, reference compound], 32.1 µM; under `N=C(N)NC(=O)c1nc(-c2cc3ccccc3o2)c(NC2CCCCCC2)nc1N` [compound 35], 26.2 µM.
On the same count and under the same terms, the figure for `N=C(N)NC(=O)c1nc(-c2cc3ccccc3o2)c(N2CCCCCC2)nc1N` [compound 5] is 19.1 µM; for `N=C(N)NC(=O)c1nc(-c2cc3cc(F)ccc3o2)c(N2CCCCCC2)nc1N` [compound 9] it is 9.6 µM.
For `N=C(N)NC(=O)c1nc(-c2ccc(C(F)(F)F)cc2)c(N)nc1N` [compound 22], it took 82.4 µM to reach half-maximal inhibition (IC50 at 48 h).

A further series deals with T1, NHE1 (Homo sapiens, UniProt P19634).
T1 construct: endogenous in cells; host or cells: MDA-MB-231
T1 sequence (P19634 whole entry): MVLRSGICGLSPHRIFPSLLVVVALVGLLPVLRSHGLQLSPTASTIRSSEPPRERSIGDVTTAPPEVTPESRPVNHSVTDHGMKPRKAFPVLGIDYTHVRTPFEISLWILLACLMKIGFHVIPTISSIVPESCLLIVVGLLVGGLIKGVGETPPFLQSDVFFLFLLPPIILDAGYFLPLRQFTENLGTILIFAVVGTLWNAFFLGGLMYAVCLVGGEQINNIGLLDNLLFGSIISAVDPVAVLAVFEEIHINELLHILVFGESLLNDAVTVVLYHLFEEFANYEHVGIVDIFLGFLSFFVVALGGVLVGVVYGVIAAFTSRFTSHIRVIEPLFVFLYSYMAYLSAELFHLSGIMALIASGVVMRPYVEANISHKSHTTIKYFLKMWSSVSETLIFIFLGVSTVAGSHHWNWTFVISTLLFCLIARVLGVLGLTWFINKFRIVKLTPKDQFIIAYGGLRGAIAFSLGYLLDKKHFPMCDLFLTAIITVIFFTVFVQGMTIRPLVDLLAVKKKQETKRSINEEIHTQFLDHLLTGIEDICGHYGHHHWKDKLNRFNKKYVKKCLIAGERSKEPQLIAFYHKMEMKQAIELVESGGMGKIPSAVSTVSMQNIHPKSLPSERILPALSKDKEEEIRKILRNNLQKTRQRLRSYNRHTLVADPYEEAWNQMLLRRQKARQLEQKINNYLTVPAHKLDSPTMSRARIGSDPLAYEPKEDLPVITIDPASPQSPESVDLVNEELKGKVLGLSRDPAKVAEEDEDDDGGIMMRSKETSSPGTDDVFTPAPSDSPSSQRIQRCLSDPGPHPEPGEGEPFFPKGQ
The series can be described thus: Plate-based NHE1 inhibition assay (BCECF pHi recovery, 96-well plate reader). It counts as cell-based. Conditions: 1 μM, MDA-MB-231 cells, plate reader. As to the method:
To perform NHE1 screening with increased throughput, we adapted the conventional cuvette-based NHE1 activity assay to a simple new 96-well plate format using MDA-MB-231 cells that were compatible with common laboratory fluorescence plate readers (see Section 4 for details).
Culture media were removed and replaced with 200 µL 0.2% FBS-containing media with incubation for 3–4 h to stimulate NHE1 activity, followed by incubation for 30 min in the presence of 5 µM 2′,7′-bis(carboxyethyl)-5(6)-carboxyfluorescein-acetoxymethyl ester (BCECF-AM, cat #ab143463, Abcam, Cambridge, United Kingdom). Cells were then washed with 100 µL/well Na^+-free acid-load buffer: 10 mM NH4Cl, 1.8 mM CaCl2, 90 mM N-methyl-D-glucamine (from 1 M stock titrated to pH 7.4 with HCl), 5 mM glucose, 15 mM HEPES, 5 mM KCl, 1 mM MgCl2 (pH 7.5, adjusted with KOH), and incubated at 37 °C for a further 30 min. Acid-load buffer was removed and replaced with Na^+-containing assay buffer: 100 mM NaCl, 1.8 mM CaCl2, 5 mM glucose, 15 mM HEPES, 5 mM KCl, 1 mM MgCl2 containing serial dilution of each compound or DMSO vehicle, and changes in fluorescence were read immediately using a BMG Labtech POLARstar OMEGA (BMG Labtech GmbH, Offenburg, Germany) plate reader according to the parameters in Table S1. Compounds were tested at n = 3 technical replicates per concentration per plate. BCECF-AM-free cells were treated with matched concentrations of each compound to correct for intrinsic fluorescence. DMSO was present in all wells at a final concentration of 1% v/v. Inhibition of NHE1-mediated pHi recovery was determined by ratiometric calculation of the change in blank-corrected pH-sensitive fluorescence divided by the isobestic fluorescence for each well over time. […] (0% activity) controls present on each plate. IC50 values were determined through fitting of Log-10 transformed data using the “log(inhibitor) versus normalised response–variable slope” non-linear function in GraphPad PRISM v8.0 software package (GraphPad Software, San Diego, CA, USA).
The term inhibition denotes the relative decrease from the control value, in per cent. Lower therefore signals little suppression. Regarding `COc1ncc(-c2nc(C(=O)NC(=N)N)c(N)nc2N2CCCOCC2)cn1` [compound 43], the inhibition at 1 µM was determined as 0%.
Take `Cc1ccc2oc(-c3nc(C(=O)NC(=N)N)c(N)nc3N3CCCCCC3)cc2c1` [compound 7]: the inhibition at 1 µM turned out to be 5%.
On the same count and under the same terms, the figure for `N=C(N)NC(=O)c1nc(I)c(N)nc1N` [compound 3] is 36%.
The same measure, in the same setting: the figure for `N=C(N)NC(=O)c1nc(-c2cc3cc(F)ccc3o2)c(N)nc1N` [compound 8] is 0%; for `CCN(c1nc(N)c(C(=O)NC(=N)N)nc1-c1cc2ccccc2o1)C(C)C` [compound 33] it is 8%.
Turning to `N=C(N)NC(=O)c1nc(-c2cnc(N)nc2)c(N2CCCCCC2)nc1N` [compound 27], 1 µM produced 0% inhibition.
The same measure, in the same setting: the figure for `N=C(N)NC(=O)c1nc(-c2cnc(NCCO)nc2)c(N2CCCCCC2)nc1N` [compound 28] is 0%; for `N=C(N)NC(=O)c1nc(-c2cc3ncccc3o2)c(N2CCCC2)nc1N` [compound 38] it is 0%.
The same measure, in the same setting: the figure for `N=C(N)NC(=O)c1nc(-c2cncnc2)c(N2CCCOCC2)nc1N` [compound 42] is 39%; for `N=C(N)NC(=O)c1nc(-c2cc3cnccc3o2)c(N2CCCCCC2)nc1N` [compound 19] it is 23%; for `N=C(N)NC(=O)c1nc(Cl)c(N2CCCCCC2)nc1N` [HMA, 5-(N,N-hexamethylene)amiloride, reference compound] it is 66%.
On the same count and under the same terms, the figure for `N=C(N)NC(=O)c1nc(-c2cc3ccccc3o2)c(NC2CCCCCC2)nc1N` [compound 35] is 0%; for `N=C(N)NC(=O)c1nc(-c2cc3ccccc3o2)c(N2CCCCCC2)nc1N` [compound 5] it is 39%; for `N=C(N)NC(=O)c1nc(-c2cc3cc(F)ccc3o2)c(N2CCCCCC2)nc1N` [compound 9] it is 22%.

Still in this series, the particulars now being: 10 μM, MDA-MB-231 cells, plate reader.
Turning to `COc1ncc(-c2nc(C(=O)NC(=N)N)c(N)nc2N2CCCOCC2)cn1` [compound 43], 10 µM produced 16% inhibition.
On the same count and under the same terms, under `Cc1ccc2oc(-c3nc(C(=O)NC(=N)N)c(N)nc3N3CCCCCC3)cc2c1` [compound 7] stands 100%; under `N=C(N)NC(=O)c1nc(I)c(N)nc1N` [compound 3], 86%; under `N=C(N)NC(=O)c1nc(-c2cc3cc(F)ccc3o2)c(N)nc1N` [compound 8], 75%.
Still for that read-out and setting: the figure for `CCN(c1nc(N)c(C(=O)NC(=N)N)nc1-c1cc2ccccc2o1)C(C)C` [compound 33] is 41%.
The same measure, in the same setting: under `N=C(N)NC(=O)c1nc(-c2cnc(N)nc2)c(N2CCCCCC2)nc1N` [compound 27] stands 11%; under `N=C(N)NC(=O)c1nc(-c2cnc(NCCO)nc2)c(N2CCCCCC2)nc1N` [compound 28], 15%.
For the molecule `N=C(N)NC(=O)c1nc(-c2cc3ncccc3o2)c(N2CCCC2)nc1N` [compound 38], testing at 10 µM gave an inhibition of 81%.
On to `N=C(N)NC(=O)c1nc(-c2cncnc2)c(N2CCCOCC2)nc1N` [compound 42], for which 10 µM produced 96% inhibition.
Still for that read-out and setting: under `N=C(N)NC(=O)c1nc(-c2cc3cnccc3o2)c(N2CCCCCC2)nc1N` [compound 19] stands 100%.
With `N=C(N)NC(=O)c1nc(Cl)c(N2CCCCCC2)nc1N` [HMA, 5-(N,N-hexamethylene)amiloride, reference compound], the “NHE1 Inhibition (%) 10 μM” value is “completely blocking activity” and the inhibition at 10 µM turned out to be 100%.
Take `N=C(N)NC(=O)c1nc(-c2cc3ccccc3o2)c(NC2CCCCCC2)nc1N` [compound 35]: at 10 µM the inhibition was 0%.
The same measure, in the same setting: under `N=C(N)NC(=O)c1nc(-c2cc3ccccc3o2)c(N2CCCCCC2)nc1N` [compound 5] stands 72%; under `N=C(N)NC(=O)c1nc(-c2cc3cc(F)ccc3o2)c(N2CCCCCC2)nc1N` [compound 9], 100%.

For another series, the target named is T2, urokinase from human kidney cells (human uPA) (Homo sapiens, UniProt P00749).
T2 construct: low molecular weight active human uPA; purchased Sigma-Aldrich U4010; host or cells: human kidney cells
The series can be described thus: uPA inhibition assay (fluorescence-based, purified enzyme). It counts as biochemical. Conditions: purified enzyme, Z-Gly-Gly-Arg-AMC substrate; number in parentheses after value; read-out: uPA IC50.
Turning to `COc1ncc(-c2nc(C(=O)NC(=N)N)c(N)nc2N2CCCOCC2)cn1` [compound 43], the IC50 was 0.267 ± 0.014 µM.
Same read-out and setting: the figure for `Cc1ccc2oc(-c3nc(C(=O)NC(=N)N)c(N)nc3N3CCCCCC3)cc2c1` [compound 7] is 1.18 µM; for `N=C(N)NC(=O)c1nc(I)c(N)nc1N` [compound 3] it is 1.58 µM; for `N=C(N)NC(=O)c1nc(-c2cc3cc(F)ccc3o2)c(N)nc1N` [compound 8] it is 0.954 ± 0.072 µM.
On to `CCN(c1nc(N)c(C(=O)NC(=N)N)nc1-c1cc2ccccc2o1)C(C)C` [compound 33], for which the half-maximal inhibitory concentration (IC50) came to 1.6 µM.
On the same count and under the same terms, under `N=C(N)NC(=O)c1nc(-c2cnc(N)nc2)c(N2CCCCCC2)nc1N` [compound 27] stands 0.034 ± 0.005 µM.
On the same count and under the same terms, the figure for `N=C(N)NC(=O)c1nc(-c2cnc(NCCO)nc2)c(N2CCCCCC2)nc1N` [compound 28] is 0.067 ± 0.003 µM; for `N=C(N)NC(=O)c1nc(-c2cc3cnccc3o2)c(N)nc1N` [compound 18] it is 1.01 µM; for `N=C(N)NC(=O)c1nc(-c2cc3ncccc3o2)c(N2CCCC2)nc1N` [compound 38] it is 0.113 ± 0.004 µM.
For `N=C(N)NC(=O)c1nc(-c2cncnc2)c(N2CCCOCC2)nc1N` [compound 42], the IC50 worked out at 0.78 ± 0.033 µM.
Turning to `N=C(N)NC(=O)c1nc(-c2cc3cnccc3o2)c(N2CCCCCC2)nc1N` [compound 19], the IC50 is 0.164 µM.
The same measure, in the same setting: under `N=C(N)NC(=O)c1nc(Cl)c(N2CCCCCC2)nc1N` [HMA, 5-(N,N-hexamethylene)amiloride, reference compound] stands 2.21 µM; under `N=C(N)NC(=O)c1nc(-c2cc3ccccc3o2)c(NC2CCCCCC2)nc1N` [compound 35], 30.2 µM.
Turning to `N=C(N)NC(=O)c1nc(-c2cc3ccccc3o2)c(N2CCCCCC2)nc1N` [compound 5], the IC50 worked out at 0.297 ± 0.016 µM.
Still for that read-out and setting: the figure for `N=C(N)NC(=O)c1nc(-c2cc3cc(F)ccc3o2)c(N2CCCCCC2)nc1N` [compound 9] is 0.187 ± 0.017 µM; for `N=C(N)NC(=O)c1nc(-c2ccc(C(F)(F)F)cc2)c(N)nc1N` [compound 22] it is 5.1 µM.

Still in this series, the particulars now being: within the 6-(2-benzofuranyl) series.
Take `CCN(c1nc(N)c(C(=O)NC(=N)N)nc1-c1cc2ccccc2o1)C(C)C` [compound 33]: the “decrease in uPA activity on opening the 5-alkylamino ring” value is given as more than 5 fold.
